Data reported in patent publication US20240025906A1 (NEURON23, INC., priority 2022, published 2024).
Read-outs that look alike come from different tables or passages of the source.

How the values were obtained:
TYK2 JH2 = target: T1, TYK2 JH2 (Homo sapiens, UniProt P29597); assay: TYK2 JH2 binding assay (KINOMEscan KdELECT competitive binding); conditions: TYK2 JH2 domain
T1 construct: purchased DiscoverX (KINOMEscan KdELECT service); host or cells: E. coli BL21-derived (T7 phage display) or HEK-293
Summary of the method: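 Kd values come from qPCR measurement of kinase retained on an immobilized-ligand resin after 1 h room-temperature competition with compound in an 11-point, 3-fold series.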

[1] = system: JAK1/TYK2 pSTAT5 (Tyr694/699) in THP-1 cell line; assay: IFNa-stimulated JAK1/TYK2 pSTAT5 (Tyr694/699) inhibition cellular assay, AlphaLISA; format: cell-based; conditions: Homo sapiens, THP-1 cells, AlphaLISA (Assay B)
Summary of the method: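 THP-1 cells (2e4/well in HBSS) were preincubated with compound (8 points, 6-fold steps from 10000 nM final) for 1 h at 37 °C, then stimulated with IFNa (added at 100 ng/mL) for 30 min. Lysate pSTAT5 was read by AlphaLISA at 615 nm. IC50 came from a 4-parameter fit with bottom 0 and Hill −1.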

[2] = KINOMEscan KdELECT (Assay A), read-out: Biochemical TYK2_JH2_Kd
[3] = IFNa-stimulated, read-out: Cellular THP1_IFNa-pSTATS_IC50
[4] = KINOMEscan KdELECT (Assay A), read-out: Biochemical TYK2_DiscoverX_JH2_BND_Kd
[5] = IFNa-stimulated pSTAT5 (Tyr694/699), read-out: Cellular_THP1_IFNa-pSTATS_TYK2
[6] = IFNa-stimulated, read-out: Cellular_THP1_IFNa-pSTATS_TYK2
[7] = DiscoverX KINOMEscan KdELECT (Assay A), read-out: Biochemical TYK2_DiscoverX_JH2_BND_Kd

T1 sequence (P29597 589-875 limits assumed): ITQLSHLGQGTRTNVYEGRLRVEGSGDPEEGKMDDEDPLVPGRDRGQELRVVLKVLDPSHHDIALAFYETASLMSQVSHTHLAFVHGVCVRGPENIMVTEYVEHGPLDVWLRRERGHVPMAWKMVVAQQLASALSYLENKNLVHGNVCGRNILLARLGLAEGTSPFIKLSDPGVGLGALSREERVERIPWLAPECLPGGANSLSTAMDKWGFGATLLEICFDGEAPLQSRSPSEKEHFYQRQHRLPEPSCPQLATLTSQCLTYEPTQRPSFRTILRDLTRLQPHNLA

SMILES	Kd (TYK2 JH2; [4])	IC50 [1, 6]	Kd (TYK2 JH2; [7])	further results
CNc1ncc(-c2ccc(OC3CCN(C)CC3)cc2)c2cc(NC(=O)C3CC3)ncc12 [Example 132, N-(8-(methylamino)-5-(4-((1-methylpiperidin-4-yl)oxy)phenyl)-2,7-naphthyridin-3-yl)cyclopropanecarboxamide]	–	–	–	Kd (TYK2 JH2; [2]): ≤ 100 nM; IC50 [1, 3]: > 500 nM
[2H]C([2H])(C)Nc1ncc(-c2nc3cc(OC)ccc3o2)c2cc(NC(=O)C3CC3)ncc12 [Example 1102, N-(8-((ethyl-1,l-rig)amino)-5-(5-methoxybenzo[d]oxazol-2-yl)-2,7-naphthyridin-3-yl)cyclopropanecarboxamide]	≤ 100 nM	–	–	IC50 [1, 5]: ≤ 500 nM
CNc1ncc(-c2ccn(CCc3ncnn3C)n2)c2cc(NC(=O)C3CC3)ncc12 [Example 836, N-(5-(1-(2-(1-methyl-1H-1,2,4-triazol-5-yl)ethyl)-1H-pyrazol-3-yl)-8-(methylamino)-2,7-naphthyridin-3-yl)cyclopropanecarboxamide]	≤ 100 nM	> 500 nM	–	–
CNc1ncc(-c2cn3cc(C)cc(F)c3n2)c2cc(NC(=O)C3CC3)ncc12 [Example 1055]	≤ 100 nM	–	–	IC50 [1, 5]: ≤ 500 nM
CNc1ncc(-c2nc3cc(N4CCOCC4)ccc3o2)c2cc(Nc3ccc(C(C)(C)O)cn3)ncc12 [Example 1098]	≤ 100 nM	–	–	IC50 [1, 5]: ≤ 500 nM
CNc1ncc(-c2nc3c(o2)CCC(C(F)(F)F)C3)c2cc(NC(=O)C3CC3)ncc12 (stereo not drawn) [Example 855, N-(8-(methylamino)-5-(5-(trifluoromethyl)-4,5,6,7-tetrahydrobenzo[d]oxazol-2-yl)-2,7-naphthyridin-3-yl)cyclopropanecarboxamide]	≤ 100 nM	> 500 nM	–	–
CNc1nccc2cc(NC(=O)C3CC3)nnc12 [Example 176, N-(8-(methylamino)pyrido[3,4-c]pyridazin-3-yl)cyclopropanecarboxamide]	–	–	–	Kd (TYK2 JH2; [2]): 100 to 1000 nM; IC50 [1, 3]: > 500 nM
CNc1ncc(-c2cnc3ccc(OC)cn23)c2cc(NC(=O)[C@H]3C[C@H]3C)ncc12 [Example 878, (1S,2R)—N-(5-(6-methoxyimidazo[1,2-a]pyridin-3-yl)-8-(methylamino)-2,7-naphthyridin-3-yl)-2-methylcyclopropane-1-carboxamide]	≤ 100 nM	> 500 nM	–	–
CNC(=O)c1ccc2oc(-c3cnc(NC)c4cnc(NC(=O)C5CC5)cc34)nc2c1 [Example 238, 2-(6-(cyclopropanecarboxamido)-1-(methylamino)-2,7-naphthyridin-4-yl)-N-methylbenzo[d]oxazole-5-carboxamide]	–	≤ 500 nM	≤ 100 nM	–
O=C(Nc1cc2c(-c3ccccc3)cnc(NCCO)c2cn1)C1CC1 [Example 160, N-(8-((2-hydroxyethyl)amino)-5-phenyl-2,7-naphthyridin-3-yl)cyclopropanecarboxamide]	–	–	–	Kd (TYK2 JH2; [2]): ≤ 100 nM; IC50 [1, 3]: > 500 nM
CNc1ncc(-c2ccc(-c3ccnn3C)cc2)c2cc(NC(=O)C3CC3)ncc12 [Example 173, N-(5-(4-(1-methyl-1H-pyrazol-5-yl)phenyl)-8-(methylamino)-2,7-naphthyridin-3-yl)cyclopropanecarboxamide]	–	–	–	Kd (TYK2 JH2; [2]): ≤ 100 nM; IC50 [1, 3]: ≤ 500 nM
CNc1ncc(-c2nc3ccccc3o2)c2c1cnc1[nH]ccc12 [Example 825, 9-(benzo[d]oxazol-2-yl)-N-methyl-3H-pyrrolo[2,3-c][2,7]naphthyridin-6-amine]	≤ 100 nM	> 500 nM	–	–
CNc1ncc(-c2nc3cc(N4CCO[C@@H](C)C4)ccc3o2)c2cc(NC(=O)C3(C)CC3)ncc12 [Example 409, (S)-1-methyl-N-(8-(methylamino)-5-(5-(2-methylmorpholino)benzo[d]oxazol-2-yl)-2,7-naphthyridin-3-yl)cyclopropane-4-carboxamide]	–	≤ 500 nM	≤ 100 nM	–

Second part, led by results:

Kd (TYK2 JH2; [4])	IC50 [1, 6]	Kd (TYK2 JH2; [7])	SMILES	further results
≤ 100 nM	≤ 500 nM	–	CNc1ncc(/C=C/c2ccc(N3C[C@@H](C)O[C@@H](C)C3)cc2)c2cc(NC(=O)C3CC3)ncc12 [Example 786, N-(5-((E)-4-((2R,6S)-2,6-dimethylmorpholino)styryl)-8-(methylamino)-2,7-naphthyridin-3-yl)cyclopropanecarboxamide]	–
–	≤ 500 nM	≤ 100 nM	CNc1ncc(-c2nc3cc(OC)ccc3o2)c2cc(NC(=O)[C@@H]3C[C@@H]3C(F)(F)F)ncc12 (racemic) [Example 396, N-(5-(5-methoxybenzo[d]oxazol-2-yl)-8-(methylamino)-2,7-naphthyridin-3-yl)-2-(trifluoromethyl)cyclopropane-1-carboxamide]	–
–	≤ 500 nM	≤ 100 nM	CNc1ncc(-c2nc3ccc(N4C[C@H]5C[C@@H]4CO5)cn3n2)c2cc(NC(=O)C3(F)CC3)ncc12 [Example 563, N-(5-(6-((1R,4R)-2-oxa-5-azabicyclo[2.2.1]heptan-5-yl)-[1,2,4]triazolo[1,5-a]pyridin-2-yl)-8-(methylamino)-2,7-naphthyridin-3-yl)-1-fluorocyclopropane-1-carboxamide]	–
–	≤ 500 nM	≤ 100 nM	[2H]C([2H])([2H])Nc1ncc(-c2nc3cc(OC)ccc3o2)c2cc(NC(=O)[C@@H]3C[C@@H]3F)ncc12 [Example 435, (1S,2S)-2-fluoro-N-(5-(5-methoxybenzo[d]oxazol-2-yl)-8-((methyl-d3)amino)-2,7-naphthyridin-3-yl)cyclopropane-1-carboxamide]	–
–	≤ 500 nM	≤ 100 nM	CNc1ncc(-c2nc3cc(C(C)(F)F)ccc3o2)c2cc(NC(=O)C3CC3)ncc12 [Example 243, N-(5-(5-(1,1-difluoroethyl)benzo[d]oxazol-2-yl)-8-(methylamino)-2,7-naphthyridin-3-yl)cyclopropanecarboxamide]	–
–	≤ 500 nM	≤ 100 nM	CNc1ncc(-c2nc3cc(N4CC(O)C4)ccc3o2)c2cc(NC(=O)C3CC3)ncc12 [Example 283, N-(5-(5-(3-hydroxyazetidin-1-yl)benzo[d]oxazol-2-y1)-8-(methylamino)-2,7-naphthyridin-3-yl)cyclopropanecarboxamide]	–
≤ 100 nM	≤ 500 nM	–	CNc1ncc(C#Cc2nc3ccccn3n2)c2cc(NC(=O)C3CC3)ncc12 [Example 598, N-(5-([1,2,4]triazolo[1,5-a]pyridin-2-ylethynyl)-8-(methylamino)-2,7-naphthyridin-3-yl)cyclopropanecarboxamide]	–
≤ 100 nM	≤ 500 nM	–	CNc1ncc(C#Cc2ncn(C)n2)c2cc(NC(=O)C3CC3)ncc12 [Example 597, N-(5-((1-methyl-1H-1,2,4-triazol-3-yl)ethynyl)-8-(methylamino)-2,7-naphthyridin-3-yl)cyclopropanecarboxamide]	–
–	≤ 500 nM	≤ 100 nM	CNc1ncc(-c2nc3cc(CCC#N)ccc3o2)c2cc(NC(=O)C3CC3)ncc12 [Example 344, N-(5-(5-(2-cyanoethyl)benzo[d]oxazol-2-yl)-8-(methylamino)-2,7-naphthyridin-3-yl)cyclopropanecarboxamide]	–
≤ 100 nM	≤ 500 nM	–	CNc1ncc(C#Cc2ccc3nnn(CCOC)c3c2)c2cc(NC(=O)C3CC3)ncc12 [Example 682, N-(5-((1-(2-methoxyethyl)-1H-benzo[d][1,2,3]triazol-6-yl)ethynyl)-8-(methylamino)-2,7-naphthyridin-3-yl)cyclopropanecarboxamide]	–
–	≤ 500 nM	≤ 100 nM	COc1ccc2oc(-c3cnc(N)c4cnc(NC(=O)C5CC5)cc34)nc2c1 [Example 369, N-(8-amino-5-(5-methoxybenzo[d]oxazol-2-yl)-2,7-naphthyridin-3-yl)cyclopropanecarboxamide]	–
